# Values quoted from earlier work, collected in US20190070136A1 (ASPIRO PHARMA LIMITED, priority 2017, published 2019).
compound,measurement,value
"O=NN(CCCl)C(=O)NCCCl [Carmustine, 1,3-bis (2-chloroethyl)-1-nitrosourea]",Log P,1.53
